Source: patent US11702427B2 (priority 2018, dated 2023)

Tested on: HBsAg
Test: HBsAg assay: inhibition of HBsAg in HepG2.2.15 cells (CLIA immunoassay of supernatant)
Format: cell-based, hepatitis B virus (HBV)
Settings: Hepatitis B virus, HepG2.2.15, 144 h, read-out: sAg EC50, HepG2.2.15 cells; supernatant collected at day 6 after exposure; HBsAg chemiluminescence immunoassay
Outline: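 HepG2.2.15 cells (30,000/well) exposed to serially diluted compound (0.5% DMSO) for 2–3 days, then re-dosed in fresh medium for 3–4 more days. On day 6, supernatant HBsAg quantified by chemiluminescence immunoassay; EC50 from dose-response curves. Viability measured separately by CellTiter-Glo.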

Work on `COCCCOc1cc2c(cc1OC)-c1[nH]c(=O)c(C(=O)O)c(OCCN(C)C)c1C(C(C)C)C2` (stereo not drawn) [Example 89, 4-(2-(Dimethylamino)ethoxy)-5-isopropyl-9-methoxy-8-(3-methoxypropoxy)-2-oxo-1,2,5,6-tetrahydrobenzo[h]quinoline-3-carboxylic acid] yielded an EC50 of 4.6 µM.
`COCCCOc1cc2c(cc1OC)-c1[nH]c(=O)c(C(=O)O)c(OCCO)c1C(C(C)C)C2` (stereo not drawn) [Example 90, 4-(2-Hydroxyethoxy)-5-isopropyl-9-methoxy-8-(3-methoxypropoxy)-2-oxo-1,2,5,6-tetrahydrobenzo[h]quinoline-3-carboxylicacid] was tested, and the EC50 was 11 µM.
In the case of `CCOc1c2c([nH]c(=O)c1C(=O)O)-c1cc(OC)c(OCCCOC)cc1CC2C(C)C` (stereo not drawn) [Example 91, 4-Ethoxy-5-isopropyl-9-methoxy-8-(3-methoxypropoxy)-2-oxo-1,2,5,6-tetrahydrobenzo[h]quinoline-3-carboxylicacid], the EC50 is reported as 1.7 µM.
With `COCCCOc1cc2c(nc1OC)-c1[nH]c(=O)c(C(=O)O)c(OC)c1C(C(C)(C)C)C2` (stereo not drawn) [Example 92, 5-(tert-Butyl)-4,9-dimethoxy-8-(3-methoxypropoxy)-2-oxo-1,2,5,6-tetrahydro-1,10-phenanthroline-3-carboxylic acid] the EC50 was 0.64 µM.
Work on `COCCCOc1cc2c(nc1C1CC1)-c1[nH]c(=O)c(C(=O)O)c(O)c1C(C(C)C)CO2` (stereo not drawn) [Example 93, 2-Cyclopropyl-8-hydroxy-7-isopropyl-3-(3-methoxypropoxy)-10-oxo-6,7,10,11-tetrahydrooxepino[3,2-b:4,5-b′]dipyridine-9-carboxylic acid] yielded an EC50 of 0.12 µM.
Work on `COCCCOc1cc2c(cc1C1CCOCC1)-c1[nH]c(=O)c(C(=O)O)c(O)c1[C@H](C(C)C)CO2` [Example 94, (S)-4-Hydroxy-5-isopropyl-9-(3-methoxypropoxy)-2-oxo-10-(tetrahydro-2H-pyran-4-yl)-1,2,5,6-tetrahydrobenzo[2,3]oxepino[4,5-b]pyridine-3-carboxylic acid] yielded an EC50 of 0.73 µM.
